Data reported in US4233310A, “Antiarteriosclerotic N-(mercaptoacyl)-histidines” (Santen Pharmaceutical Co., Ltd., priority 1976, dated 1980).

Tests used:
[1] = Hypolipid action in rats fed stock diet (serum and liver lipids); format: in vivo, Wistar strain male rats; conditions: 100 mg/kg orally twice a day for one week; for Liver lipid: Cholesterol content / Liver lipid: Phospholipid content / Liver lipid: Triglyceride content / Serum lipid: Cholesterol content / Serum lipid: Phospholipid content / Serum lipid: Triglyceride content: fasted 16 hours, mean ± standard; for Liver lipid: Cholesterol % / Liver lipid: Phospholipid % / Liver lipid: Triglyceride % / Serum lipid: Cholesterol % / Serum lipid: Phospholipid % / Serum lipid: Triglyceride %: % of control (control = 100)
Procedure: (§1) Pharmacological study (Hypolipid action)
(§2) A 2% aqueous solution of N-(mercaptoacetyl)-L-histidine and N-(3-mercaptopropionyl)-L-histidine, previously neutralized to pH 7.0 with sodium hydroxide, was administered orally to Wistar strain male rats at a dose of 100 mg/kg twice a day for one week. After the final administration of the test solution, the rats were fasted for 16 hours. Cholesterol, triglyceride and phospholipid levels in serum and liver were determined. The rats were divided into two groups. One group was fed a stock diet, and the other a 2% cholesterol-containing diet.
Group fed with stock diet

[2] = Hypolipid action in rats fed 2% cholesterol-containing diet (serum and liver lipids); format: in vivo, Wistar strain male rats; conditions: 100 mg/kg orally twice a day for one week; for Liver lipid: Cholesterol content / Liver lipid: Phospholipid content / Liver lipid: Triglyceride content / Serum lipid: Cholesterol content / Serum lipid: Phospholipid content / Serum lipid: Triglyceride content: fasted 16 hours, mean ± standard; for Liver lipid: Cholesterol % / Liver lipid: Phospholipid % / Liver lipid: Triglyceride % / Serum lipid: Cholesterol % / Serum lipid: Phospholipid % / Serum lipid: Triglyceride %: % of control (control = 100)
Procedure: as §1, §2
Group fed with cholesterol containing diet

[3] = Acute toxicity (LD50, intraperitoneal); conditions: rat, in vivo, ip, 5% solution pH 7.0, 7-day observation, Litchfield-Wilcoxon method
Procedure: ddy Strain male rats, 4 weeks of age, weighing 18-20 g were placed in a room of constant temperature and humidity (24°±1° C., 55+5%) and fed freely a pellet diet (CE-2, made by Clea Japan Inc.) and water for one week. Out of them, rats showing normal growth were selected for the experiment.
N-(3-mercaptopropionyl)-L-histidine was added to physiological saline, and was neutralized to pH 7.0 with 4 N sodium hydroxide a 5% solution of this solution was used as the test solution, being administered intraperitoneally to the rats.

Row | SMILES | Liver lipid: Cholesterol content [1] | Liver lipid: Phospholipid content [1] | Liver lipid: Triglyceride content [1] | Serum lipid: Cholesterol content [1] | Serum lipid: Phospholipid content [1] | Serum lipid: Triglyceride content [1] | Liver lipid: Cholesterol % [1] | Liver lipid: Phospholipid % [1] | Liver lipid: Triglyceride % [1] | Serum lipid: Cholesterol % [1] | Serum lipid: Phospholipid % [1] | Serum lipid: Triglyceride % [1] | Liver lipid: Cholesterol content [2] | Liver lipid: Phospholipid content [2] | Liver lipid: Triglyceride content [2] | Serum lipid: Cholesterol content [2] | Serum lipid: Phospholipid content [2] | Serum lipid: Triglyceride content [2] | Liver lipid: Cholesterol % [2] | Liver lipid: Phospholipid % [2] | further results
1 | O=C(CS)N[C@@H](Cc1c[nH]cn1)C(=O)O [Compound 1, N-(mercaptoacetyl)-L-histidine] | 19.7 ± 0.8 mg/total liver weight | 175.1 ± 7.3 mg/total liver weight | 24.4 ± 2.0 mg/total liver weight | 53.2 ± 1.9 mg/dL | 95.1 ± 3.2 mg/dL | 56.0 ± 5.6 mg/dL | 89.5% | 89.7% | 61.5% | 83.6% | 83.9% | 65.0% | 52.4 ± 3.6 mg/total liver weight | 112.6 ± 5.8 mg/total liver weight | 17.0 ± 1.4 mg/total liver weight | 269.5 ± 4.8 mg/dL | 178.6 ± 9.8 mg/dL | 81.4 ± 10.2 mg/dL | 83.4% | 93.2% | Liver lipid: Triglyceride % [2]: 97.7%; Serum lipid: Cholesterol % [2]: 88.7%; Serum lipid: Phospholipid % [2]: 87.8%; Serum lipid: Triglyceride % [2]: 71.6%
2 | O=C(CCS)N[C@@H](Cc1c[nH]cn1)C(=O)O [Compound 2, N-(3-mercaptopropionyl)-L-histidine] | 18.9 ± 0.4 mg/total liver weight | 163.6 ± 1.7 mg/total liver weight | 30.8 ± 4.5 mg/total liver weight | 45.4 ± 0.4 mg/dL | 93.4 ± 4.8 mg/dL | 49.5 ± 5.5 mg/dL | 85.9% | 83.8% | 77.6% | 71.4% | 82.4% | 57.5% | 60.3 ± 4.0 mg/total liver weight | 116.4 ± 4.2 mg/total liver weight | 17.1 ± 1.5 mg/total liver weight | 246.9 ± 27.8 mg/dL | 173.9 ± 7.0 mg/dL | 79.2 ± 4.9 mg/dL | 96.0% | 96.4% | Liver lipid: Triglyceride % [2]: 98.3%; Serum lipid: Cholesterol % [2]: 81.4%; Serum lipid: Phospholipid % [2]: 85.5%; Serum lipid: Triglyceride % [2]: 69.7%; LD50 at 168 h [3]: 4040 mg/kg
